Data reported in PMC5958115, “A novel small molecule chaperone of rod opsin and its potential therapy for retinal degeneration” (Nature Communications, 2018).
“Also recorded” adds a separate entry of the source. Where two headings read alike, the source gives them in different places.

Tests used:
Format in all cases: cell-based
mouse P23H-opsin mutant = mouse P23H-opsin mutant (Mus musculus, UniProt P15409, P23H); experiment: β-Gal fragment complementation assay: rescue of P23H opsin transport from ER to plasma membrane, U2OS(PLC-EA/P23H-PK) cells
Description: U2OS(PLC-EA/P23H-PK) cells. A U2OS stable cell line was generated by DiscoveRx, Inc. (Fremont, CA, USA) for the β-Gal fragment complementation assay used in the small-molecule HTS for rescue of P23H-opsin transport. U2OS cells that continually express P23H-PK and PLC-EA fusion proteins were generated. Briefly, this small subunit of β-Gal (PK fragment) was fused to the C-terminal of the mouse P23H-opsin mutant, while the large EA fragment, a subunit of β-Gal, was fused with PLC, a plasma membrane-anchored peptide. Both constructs were subcloned by DicoveRx, Inc. and transferred into U2OS cells by viral infections. Positive clones were selected under treatment with hygromycin and geneticin.
Briefly, U2OS(PLC-EA /P23H-PK) cells were suspended in assay medium at 3 × 10^5 cells mL^−1. The cell suspension was dispensed into 384-well plates (Greiner Bio-one, Monroe, NC, USA) at 20 µL per well, with a Multidrop dispenser (Thermo Scientific, Waltham, MA, USA). Plates with cells then were centrifuged at 200×g for 15 s before incubation at 37 °C with 5% CO2. Plates were removed 24 h later for treatment with tested compounds. A total of 248 plates containing 79,080 compounds from three small-molecule libraries were paired with an equal number of assay plates with cultured cells. Owing to a limited capacity, these plates were assayed in seven batches. An average of 56.3 nL of 10 mM compound in DMSO was dispensed into each well from column 3 to 22 of paired assay plates using a 50 nL 384-pintool system, such that the final concentration of each compound was 22.52 µM on average. […] Each assay plate was shaken for 5 s before further incubation at 37 °C with 5% CO2. After 24 h, assay plates were removed, and each well was incubated with 25 µL of 1× Gal-Screen assay buffer (1:24 substrate-buffer ratio). Assay plates were incubated in the dark for 60–90 min, and luminescence was read from each assay plate with an Envision microplate reader (PerkinElmer) during a 0.1 s per well integration time. The mean and s.d. of readouts in column 2 of each plate were calculated as Mean0% and SD0%, whereas the average and s.d. of readouts in column 23 were calculated as Mean100% and SD100%. Eq. 1: Activity scores (%) = (RLUcp − Mean0%)/(Mean100% − Mean0%) × 100%, where RLUcp is the relative luminescence unit derived for cells treated with a compound. Eq. 2: Z′-factor = 1–3 × (SD0% + SD100%)/(Mean100% − Mean0%)[32]; Eq. 3: signal-to-background (S/B) ratio = Mean100%/Mean0%. Activities of all tested compounds were registered with their compound ID by GeneData Screener (Genedata, Basel, Switzerland) and Pipeline Pilot software (Accelrys, San Diego, CA, USA). Hits, cherry-picked from a separate stock dose-dependent activity test, were selected with an activity score cutoff at 20%. Activity of each hit was tested again with the β-Gal fragment complementation assay in a 10-dose series with each dose tested in triplicate. The 10 doses tested were 80, 40, 20, 10, 5, 2.5, 1.25, 0.625, 0.313, and 0.156 µM. Dose-dependent curves of each hit compound were fitted with GeneData and Origin software.
Detailed synthetic steps are described in Supplementary Note and Supplementary Fig. 9. […] YC-002-YC-021 were purchased from commercial vendors including Enamine LLC (Monmouth Jct., NJ, USA), Matrix Scientific (Columbia, SC, USA) and Tokyo Chemical Industry Co., Ltd. (Portland, OR, USA). […] Activities of YC compounds were tested with the β-Gal fragment complementation assay, as described in a prior section. All YC compounds were tested at 10 doses, each in triplicate: 80, 40, 20, 10, 5, 2.5, 1.25, 0.625, 0.313, and 0.156 µM.

mouse P23H opsin = molecular target: T1, mouse P23H opsin (Mus musculus, UniProt P15409, P23H); experiment: High-content imaging analysis of P23H opsin immunostaining in NIH3T3-(P23H opsin/GFP) cells; conditions: ratio of P23H rod opsin fluorescence on plasma membrane to whole cell; for EC50: read-out: Immunostaining HCS MEM-Total ratio EC50
T1 construct: expressed in transfected cells
Method: To characterize the effect of active compounds on the localization of P23H-mutant opsin in mammalian cells, an image-based assay was used with cells immunostained for WT or P23H-mutant opsin protein[18]. Briefly, NIH3T3-(P23H opsin/GFP) or NIH3T3-(WT-opsin/GFP) cells were seeded at 5000 cells per well in a 384-well cell-carrier plate (PerkinElmer) and incubated at 37 °C with 5% CO2 for 2 h. Cells were treated with compounds as described for the β-Gal fragment complementation assay and incubated in assay medium for 24 h. The assay medium then was aspirated, and cells were fixed with 4% paraformaldehyde at 20 µL per well for 20 min at RT. Cells were immunostained in one of two ways: cell membranes were either permeabilized with 0.1% Triton X-100 for 15 min or left intact and then were incubated with 10% goat serum (Life Technologies). To detect opsin on the cell plasma membrane only, intact cells were immunostained with 20 µL per well of 20 µg mL^−1 B6-30 anti-rhodopsin antibody that recognizes the N-terminal epitope on the extracellular side of rhodopsin. To detect total opsin, cells were permeabilized with Triton X-100 and immunostained with 50 µg mL^−1 1D4 anti-rhodopsin antibody specific for the C-terminal epitope on the intracellular side of rhodopsin. Opsin immunostaining was visualized by incubating cells with 5 µg mL^−1 Cy3-conjugated goat anti-mouse IgG antibody. Three washes with phosphate-buffered saline (PBS: 10 mM Na2HPO4, 1.8 mM KH2PO4, pH 7.4, 137 mM NaCl, and 2.7 mM KCl) were performed between each step of incubation with antibody. In the last wash with PBS, DAPI was added to each well at 300 nM. Fluorescence images were obtained with the Operetta High Content Imaging System (PerkinElmer) using a ×20 long objective. Five fields were taken of each well for cell images using three channels for fluorescence: GFP (100 ms), Cy3 (300 ms), and DAPI (50 ms). Images were analyzed with Acapella software from the Columbus data storage and analysis system (PerkinElmer)[18]. For cells immunostained with opsin on the non-permeabilized cell membrane only, an average of total fluorescence intensity of Cy3 per cell was used to quantify opsin in each well of the 384-well plate. For cells immunostained with opsin in permeabilized whole cells, an average ratio of Cy3 intensity on the cell plasma membrane (PM) to that of the entire cell (opsin ratio PM-to-total) was calculated for each well of a 384-well plate to quantify opsin transport to the plasma membrane. The plasma membrane was defined within ± 5% of the cell border.

P23H opsin = molecular target: T2, P23H opsin (Mus musculus, UniProt P15409, P23H); experiment: Immunoblot of P23H opsin glycosylation in NIH3T3 cell lysates; parameters: key to Improved glycosylation: n = no; y = yes; conditions: P23H opsin
T2 construct: expressed in transfected cells
Method: NIH3T3-(P23H opsin/GFP) or NIH3T3-(WT-opsin/GFP) cells were seeded in a 48-well plate (Corning Costar) at 3.2 × 10^5 cells per well and incubated at 37 °C with 5% CO2 for 2 h. One hundred-µL of assay medium containing a compound at 5× its final concentration was added to each well. The plate was gently shaken for 5 s before further incubation at 37 °C with 5% CO2 for 24 h. The assay medium then was aspirated, and cells were lysed with 100 µL per well PBS containing 0.1% Triton X-100 and complete protease inhibitor cocktail (Roche, Basel, Switzerland) followed by sonication for 3 s. Protein concentrations were determined with the Bradford assay. For PNGaseF catalyzed deglycosylation, 3 µL of PNGaseF (1500 U, NEB) was added to the cell lysate and the mixture was incubated at room temperature for 1 h before immunoblotting. For NIH3T3-(P23H opsin/GFP) cells, 15 µg of total protein were loaded per well onto an SDS-polyacrylamide gel; whereas for NIH3T3-(WT-opsin/GFP) cells, 5 µg of total protein was loaded per well. Opsin protein was immunostained with 0.2 μg mL^−1 horseradish peroxidase-conjugated 1D4 anti-rhodopsin antibody. Band intensities were measured with ImageJ software (http://imagej.nih.gov/ij/; National the Institutes of Health, Bethesda, MD, USA) and normalized to a glyceraldehyde 3-phosphate dehydrogenase (GAPDH) loading control. Full scans of immunoblotted membranes are shown in Supplementary Fig. 8.

[1] = 24 h; 5 µM 9-cis-retinal = 100%; experimental maximum
[2] = 24 h; 5 µM 9-cis-retinal = 100%; from curve fitting
[3] = 24 h preincubation; activity standardized to 5 µM 9-cis-retinal as 100%; Hill fit; read-out: β-Gal fragment complementation assay Activity score (%) EC50
[4] = modifications linked to C3 of the furan-2(5H)-one ring; 10 doses 0.156-80 µM; read-out: Potency EC50

Row | Structure (SMILES) | activity in rescuing P23H-opsin transport (in words) (mouse P23H-opsin mutant) | EC50 (mouse P23H-opsin mutant; [4]) | Emax (mouse P23H-opsin mutant; U2OS; read-out: Efficacy (%)) | further results
1 | O=C(NCCn1ncc2c(NCc3ccco3)ncnc21)c1cc(-c2ccccc2)on1 [Compound F2902-1134] | – | – | – | β-Gal fragment complementation assay Activity score (%) Max (Exp) (mouse P23H-opsin mutant; [1]): 23.1%; β-Gal fragment complementation assay Activity score (%) Max (fit) / Efficacy (mouse P23H-opsin mutant; [2]): 31.5%; EC50 (mouse P23H-opsin mutant; [3]): 21.6 µM; Immunostaining HCS MEM-Total ratio Max (fit) (mouse P23H opsin): 0.031; EC50 (mouse P23H opsin): 4.15 µM; Improved glycosylation (P23H opsin): n
2 | COCCNC(=O)c1sc2c(cnc3ccc(OC)cc32)c1-c1ccccc1 [Compound F3382-5924] | – | – | – | β-Gal fragment complementation assay Activity score (%) Max (fit) / Efficacy (mouse P23H-opsin mutant; [2]): 155%; EC50 (mouse P23H-opsin mutant; [3]): 28.6 µM; Immunostaining HCS MEM-Total ratio Max (fit) (mouse P23H opsin): 0.046; EC50 (mouse P23H opsin): 2.42 µM; Improved glycosylation (P23H opsin): y
3 | O=C(Cn1c2c(c(=O)n(C3CCCCC3)c1=O)CCC2)Nc1cccc(F)c1 [Compound F5111-0031] | – | – | – | β-Gal fragment complementation assay Activity score (%) Max (Exp) (mouse P23H-opsin mutant; [1]): 60.4%; β-Gal fragment complementation assay Activity score (%) Max (fit) / Efficacy (mouse P23H-opsin mutant; [2]): 165%; EC50 (mouse P23H-opsin mutant; [3]): 54.3 µM; Immunostaining HCS MEM-Total ratio Max (fit) (mouse P23H opsin): 0.025; EC50 (mouse P23H opsin): 6.76 µM; Improved glycosylation (P23H opsin): y
4 | O=C(C1CC1)N(CCn1cccn1)c1nc2c(Cl)cccc2s1 [Compound F5581-0240] | – | – | – | β-Gal fragment complementation assay Activity score (%) Max (Exp) (mouse P23H-opsin mutant; [1]): 244%; β-Gal fragment complementation assay Activity score (%) Max (fit) / Efficacy (mouse P23H-opsin mutant; [2]): 230%; EC50 (mouse P23H-opsin mutant; [3]): 5.93 µM; Immunostaining HCS MEM-Total ratio Max (fit) (mouse P23H opsin): 0.010; EC50 (mouse P23H opsin): 0.64 µM; Improved glycosylation (P23H opsin): y
5 | Cc1sc(C)c(C2C(=O)OC(=O)C2c2c(C)sc(C)c2C)c1C (stereo not drawn) [YC-018] | – | – | – | EC50 (mouse P23H-opsin mutant; more than one site modified; read-out: Potency): 138 µM
6 | O=C1OCC(c2ccc(Cl)s2)=C1c1ccco1 [YC-028] | failed to retain activity | – | – | –
7 | O=C1OCC(c2ccc(Cl)s2)=C1c1ccccn1 [YC-043] | activity was preserved or improved; also recorded: improved potency, efficacy, or solubility | 19 µM | – | Efficacy (%) (mouse P23H-opsin mutant; modifications at C3; normalized to 5 µM 9-cis-retinal): 214%
8 | O=C1OCC(c2ccc(Cl)s2)=C1c1ccccc1 [YC-047] | activity was preserved or improved | 9.87 µM | 188% | –
9 | O=C1OCC(c2ccco2)=C1c1cccs1 [YC-049] | some activity that remained | – | – | EC50 (mouse P23H-opsin mutant): 91.9 µM; Emax (mouse P23H-opsin mutant; U2OS, read-out: Efficacy (%)): 112%
10 | O=C1OCC(c2ccc(Cl)s2)=C1c1cccc(F)c1 [YC-050] | lower efficacies | 7.36 µM | 131% | –
11 | O=C1OCC(c2ccc(Cl)s2)=C1c1ccsc1 [YC-051] | activity was preserved or improved | 10.9 µM | 169% | –
12 | COc1ccc(C2=C(c3ccc(Cl)s3)COC2=O)cc1 [YC-052] | – | 7.13 µM | 10% | –
13 | O=C1OCC(c2ccc(Cl)s2)=C1c1ccc(F)cc1 [YC-053] | little efficacy | 24.1 µM | 32.9% | –
14 | Cc1c(F)cccc1C1=C(c2ccc(Cl)s2)COC1=O [YC-054] | improved potency, efficacy, or solubility | 3.53 µM | 227% | –
15 | O=C1OCC(c2ccc(Cl)s2)=C1c1ccc(Cl)cc1Cl [YC-055] | – | 5.33 µM | 11% | –
16 | COc1cccc(C2=C(c3ccc(Cl)s3)COC2=O)c1Cl [YC-056] | – | 9.39 µM | 104% | –
17 | O=C1NCC(c2ccc(Cl)s2)=C1c1cccs1 [YC-060] | – | – | 7.1% | EC50 (mouse P23H-opsin mutant; modifications of the furan-2(5H)-one ring; read-out: Potency): 24.6 µM
18 | O=C1OCC(c2ccc(Cl)s2)=C1c1ccccc1F [YC-068] | relatively higher efficacies; also recorded: improved potency, efficacy, or solubility | 5.66 µM | 261% | –
